In patent US9617251B2, “Indanylaminopyridylcyclopropanecarboxylic acids, pharmaceutical compositions and uses thereof” (BOEHRINGER INGELHEIM INTERNATIONAL GMBH, priority 2015, dated 2017):
Values after ≈ are worked out from the molar mass of the structure shown.

What was measured:
[1] = Chemical stability: degradation kinetics in acidic aqueous media (pH ca. 1.2), HPLC recovery; assay type: physicochemical; conditions: pH value of ca. 1.2 (acetonitrile/0.1 M aqueous HCl 2:3), 37° C.
Procedure: Degradation kinetics is used to simulate chemical stability of compounds in the acidic part of the gastro intestinal tract. […] Their application as medical drugs to treat human diseases is therefore less restricted and troublesome.
The chemical stability of the compounds of the invention at pH value of ca. 1.2 is determined as follows:
Compound is dissolved in an HPLC vial either in a mixture of acetonitrile/0.1 M aqueous HCl (2:3; pH ca. 1.2) or in a mixture of acetonitrile/McIlvaine buffer pH 7.4 (2:3) to get a concentration of approximately 0.25 mg/ml. The vial was then transferred into an HPLC autosampler system and maintained at a temperature of 37° C. A first sample is taken and injected immediately into a standard HPLC system with a UV DAD detector. Further samples are injected after 2, 4, 6, 8 and 10 hours. Amount of degraded compound is measured by determining the recovery rate of compound [%] for each injection using an HPLC standard gradient method. Therefore the peak area of the main peak for the first injection (AUt0) is determined and set as 100%. Peak area of the main peak is determined also for the further injections (AUtn, n=2, 4, 6, 8, 10) and expressed as fraction of (AUt0)/(AUtn, n=2, 4, 6, 8, 10) [%].

[2] = biological target: human GPR40 receptor (Homo sapiens, UniProt O14842); assay: IP1 accumulation measurements using the IPOne assay system (1321N1 cells stably expressing human GPR40 receptor); assay type: cell-based; conditions: 1321N1 cells expressing human GPR40, 1 h stimulation at 37° C.
Procedure: IP1 accumulation measurements using the IPOne assay system—1321N1 cells stably expressing human GPR40 receptor (Euroscreen, Belgium) are seeded 24 h before the assay in white 384-well plates in culture medium containing 10% FCS, 1% Na-Pyruvate and 400 μg/mL G418. IP1 is assayed according to the manufacturer's description (Cisbio Bioassays, France). In brief, the assay is started by substitution of the culture medium by stimulation buffer (Hepes 10 mM, CaCl2 1 mM, MgCl2 0.5 mM, KCl 4.2 mM, NaCl 146 mM, glucose 5.5 mM and LiCl 50 mM, pH 7.4). Cells are stimulated for 1 h at 37° C., 5% CO2 by addition of the compounds that are diluted in stimulation buffer containing LiCl. Assays are stopped by adding HTRF-conjugates (IP1-d2 and Anti-IP1 cryptate Tb) and lysis buffer, provided by the manufacturer. After an incubation time of 1 h at room temperature plates are measured using an EnVision™, Perkin Elmer. The obtained fluorescence ratios at 665/615 […] are then used to calculate the pEC50 values using Assay Explorer 3.3 Software (Accelrys, Inc.) by interpolation using an IP1 reference curve and subsequent sigmoidal curve fitting allowing for a variable hill slope.

[3] = biological target: T1, cytochrome P450 2C8-isoenzyme (Homo sapiens, UniProt P10632); assay: Inhibition of CYP-2C8 (deethylation of amodiaquine, human liver microsomes); assay type: in vitro ADME; conditions: CYP-2C8, human liver microsomes, amodiaquine 1 μM, 37° C.
T1 construct: from tissue; host or cells: human liver microsomes
T1 sequence (P10632 1-490): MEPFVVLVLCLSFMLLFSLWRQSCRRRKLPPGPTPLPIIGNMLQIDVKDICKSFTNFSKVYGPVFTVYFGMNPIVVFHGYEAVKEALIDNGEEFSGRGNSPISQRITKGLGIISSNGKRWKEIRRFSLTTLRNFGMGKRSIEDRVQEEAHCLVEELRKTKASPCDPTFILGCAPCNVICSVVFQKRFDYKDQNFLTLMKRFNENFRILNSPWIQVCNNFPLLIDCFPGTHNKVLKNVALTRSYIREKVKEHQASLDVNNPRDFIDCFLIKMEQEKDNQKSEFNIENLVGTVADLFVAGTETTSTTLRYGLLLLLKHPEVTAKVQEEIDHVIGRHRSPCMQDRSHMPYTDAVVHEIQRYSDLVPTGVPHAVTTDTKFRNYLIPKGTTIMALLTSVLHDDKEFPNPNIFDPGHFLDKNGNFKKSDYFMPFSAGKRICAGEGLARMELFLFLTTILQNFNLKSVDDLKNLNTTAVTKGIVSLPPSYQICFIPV
Procedure: The inhibition of cytochrome P450 2C8-isoenzyme catalyzed deethylation of amodiaquine by the test compound is assayed at 37° C. with human liver microsomes. All assays are carried out on a robotic system in 96 well plates. The final incubation volume contains TRIS buffer (0.1 M), MgCl2 (5 mM), human liver microsomes (0.05 mg/mL), amodiaquine (1 μM) and the test compound at five different concentrations or no compound (high control) in duplicate (e.g. highest concentration 10-50 μM with subsequent serial 1:4 dilutions). Following a short preincubation period, reactions are started with the cofactor (NADPH, 1 mM) and stopped by cooling the incubation down to 8° C. and subsequently by addition of one volume of acetonitrile. An internal standard solution—the stable isotope d5-desethylamodiaquine—is added after quenching of incubations. Peak area analyte (=metabolite formed) and internal standard is determined by LC-MS/MS. The resulting peak area ratio analyte to internal standard in these incubations is compared to a control activity containing no test compound. Within each of the assay runs, the IC50 of a positive control inhibitor (Montelukast) is determined. Experimental IC50 values are calculated by least square regression according to the following equation: % control activity=(100% control activity/(1+(I/IC50)S))−B with I=inhibitor concentration; S=slope factor; B=background activity (lower plateau of the inhibition curve)
(§1) If the inhibition of the reaction is already >50% at the lowest concentration of the test compound, the IC50 is assigned “<lowest concentration tested” (usually <0.4 μM). If the inhibition of the reaction is still <50% at the highest concentration of the test compound, the IC50 is assigned “>highest concentration tested” (usually >50 μM).

[4] = biological target: T2, cytochrome P450 2C9-isoenzyme (Homo sapiens, UniProt P11712); assay: Inhibition of CYP-2C9 (hydroxylation of diclofenac, human liver microsomes); assay type: in vitro ADME; conditions: CYP-2C9, human liver microsomes, diclofenac 10 μM, 37° C.
T2 construct: from tissue; host or cells: human liver microsomes
Procedure: The inhibition of cytochrome P450 2C9-isoenzyme catalyzed hydroxylation of diclofenac by the test compound is assayed at 37° C. with human liver microsomes. All assays are carried out on a robotic system in 96 well plates. The final incubation volume contains TRIS buffer (0.1 M), MgCl2 (5 mM), human liver microsomes (0.1 mg/mL), diclofenac (10 μM) and the test compound at five different concentrations or no compound (high control) in duplicate (e.g., highest concentration 10-50 μM with subsequent serial 1:4 dilutions). Following a short preincubation period, reactions are started with the cofactor (NADPH, 1 mM) and stopped by cooling the incubation down to 8° C. and subsequently by addition of one volume of acetonitrile. An internal standard solution—the stable isotope ^13C6-hydroxydiclofenac—is added after quenching of incubations. Peak area analyte (=metabolite formed) and internal standard is determined by LC-MS/MS. The resulting peak area ratio analyte to internal standard in these incubations is compared to a control activity containing no test compound. Within each of the assay runs, the IC50 of a positive control inhibitor (sulfaphenazole) is determined. Experimental IC50 values are calculated by least square regression according to the following equation: % control activity=(100% control activity/(1+(I/IC50)S))−B with I=inhibitor concentration; S=slope factor; B=background activity (lower plateau of the inhibition curve)
as §1

[5] = Aqueous solubility in buffer vs acetonitrile/water (1/1), LC-UV; assay type: physicochemical; conditions: kinetic from dmso stock, buffer pH 2.2, 24 h shaking, 2.5% DMSO
Procedure: The aqueous solubility of the compounds of the invention is determined by comparing the amount dissolved in buffer to the amount in an acetonitrile/water (1/1) solution. Starting from a 10 mM DMSO stock solution aliquots are diluted with acetonitrile/water (1/1) or buffer, respectively. After 24 h of shaking, the solutions are filtrated and analyzed by LC-UV. The amount dissolved in buffer is compared to the amount in the acetonitrile solution.
Solubility is usually being measured from 0.001 to 0.125 mg/mL at a DMSO concentration of 2.5%. If more than 90% of the compound is dissolved in buffer, the value is marked with “>”.

Sequence of human GPR40 receptor (O14842 whole entry): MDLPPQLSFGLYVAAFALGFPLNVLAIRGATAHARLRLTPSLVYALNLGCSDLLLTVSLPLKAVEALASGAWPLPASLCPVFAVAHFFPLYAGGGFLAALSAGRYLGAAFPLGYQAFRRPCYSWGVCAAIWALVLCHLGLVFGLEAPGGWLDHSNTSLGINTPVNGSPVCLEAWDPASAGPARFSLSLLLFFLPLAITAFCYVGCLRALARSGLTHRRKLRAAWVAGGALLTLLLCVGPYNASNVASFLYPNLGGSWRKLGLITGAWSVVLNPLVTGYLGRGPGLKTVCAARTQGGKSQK
T2 sequence (P11712 whole entry): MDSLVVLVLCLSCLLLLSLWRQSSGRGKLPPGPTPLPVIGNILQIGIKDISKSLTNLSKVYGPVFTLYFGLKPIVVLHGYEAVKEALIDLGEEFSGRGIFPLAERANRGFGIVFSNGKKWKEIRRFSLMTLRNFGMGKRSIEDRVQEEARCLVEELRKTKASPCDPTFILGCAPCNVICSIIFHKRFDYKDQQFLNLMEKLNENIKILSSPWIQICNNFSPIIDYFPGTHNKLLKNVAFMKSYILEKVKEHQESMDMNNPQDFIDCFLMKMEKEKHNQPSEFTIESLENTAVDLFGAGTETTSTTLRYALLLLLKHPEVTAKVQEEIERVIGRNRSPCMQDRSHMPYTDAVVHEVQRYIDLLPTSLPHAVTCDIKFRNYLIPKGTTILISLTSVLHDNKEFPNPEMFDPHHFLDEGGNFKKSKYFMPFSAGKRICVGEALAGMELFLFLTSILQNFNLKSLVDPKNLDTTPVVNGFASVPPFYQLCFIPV

Compound	Amount of degradation after 2 h [1] [%]	EC50 [2] [µM]	IC50 [3] [µM]	IC50 [4] [µM]	solubility at 24 h [5] [mg/mL]
Cc1cc(-c2nnn(C)n2)cc(C)c1-c1cccc2c1CC[C@H]2Nc1ccc([C@H]2C[C@@H]2C(=O)O)cn1 [Example 1, (1S,2S)-2-(6-{(R)-4-[2,6-Dimethyl-4-(2-methyl-2H-tetrazol-5-yl)-phenyl]-indan-1-ylamino}-pyridin-3-yl)-cyclopropanecarboxylic acid]	<0.5	0.007	16	48	0.067 (≈ 139 µM)
Cc1cc(OCCC(C)(C)O)cc(C)c1-c1cccc2c1CC[C@H]2Nc1ccc([C@H]2C[C@@H]2C(=O)O)cn1 [Example 2, (1S,2S)-2-(6-{(R)-4-[4-(3-Hydroxy-3-methyl-butoxy)-2,6-dimethyl-phenyl]-indan-1-ylamino}-pyridin-3-yl)-cyclopropanecarboxylic acid]	<0.5	0.011	30	> 50	0.083 (≈ 166 µM)
Cc1cc(OCCC(C)(C)O)cc(C)c1-c1ccc(F)c2c1CC[C@H]2Nc1ccc([C@H]2C[C@@H]2C(=O)O)cn1 [Example 4, (1S,2S)-2-(6-{(R)-7-Fluoro-4-[4-(3-hydroxy-3-methyl-butoxy)-2,6-dimethyl-phenyl]-indan-1-ylamino}-pyridin-3-yl)-cyclopropanecarboxylic acid]	<0.5	0.008	46	> 50	0.089 (≈ 172 µM)
COc1cc(C)c(-c2ccc(F)c3c2CC[C@H]3Nc2ccc([C@H]3C[C@@H]3C(=O)O)cn2)c(C)c1 [Example 19]	<1.0	0.016	26	35	0.067 (≈ 150 µM)
Cc1cc(C#N)cc(C)c1-c1ccc(F)c2c1CC[C@H]2Nc1ccc([C@H]2C[C@@H]2C(=O)O)cn1 [Example 20]	<0.5	0.018	24	33	0.066 (≈ 149 µM)
Cc1cc(C(N)=O)cc(C)c1-c1ccc(F)c2c1CC[C@H]2Nc1ccc([C@H]2C[C@@H]2C(=O)O)cn1 [Example 21]	<0.5	0.06	> 50	> 50	0.083 (≈ 181 µM)
CCc1cccc(CC)c1-c1ccc(F)c2c1CC[C@H]2Nc1ccc([C@H]2C[C@@H]2C(=O)O)cn1 [Example 23]	<0.5	0.005	11	15	0.075 (≈ 169 µM)
Cc1nc(-c2cc(C)c(-c3ccc(F)c4c3CC[C@H]4Nc3ccc([C@H]4C[C@@H]4C(=O)O)cn3)c(C)c2)no1 [Example 26]	<0.5	0.004	35	> 50	0.065 (≈ 130 µM)
Cc1cc(-c2ccnn2C)cc(C)c1-c1ccc(F)c2c1CC[C@H]2Nc1ccc([C@H]2C[C@@H]2C(=O)O)cn1 [Example 31]	<0.5	0.031	9	27	0.093 (≈ 187 µM)
Cc1cc(OCC(C)(C)C#N)cc(C)c1-c1ccc(F)c2c1CC[C@H]2Nc1ccc([C@H]2C[C@@H]2C(=O)O)cn1 [Example 35]	<0.5	0.023	18	34	0.059 (≈ 115 µM)
Cc1cc(-c2ccn(C)c(=O)c2)cc(C)c1-c1ccc(F)c2c1CC[C@H]2Nc1ccc([C@H]2C[C@@H]2C(=O)O)cn1 [Example 36]	<0.5	0.006	10	> 50	0.107 (≈ 204 µM)
Cc1cc(O)cc(C)c1-c1ccc(F)c2c1CC[C@H]2Nc1ccc([C@H]2C[C@@H]2C(=O)O)cn1 [Example 41]	<1.5	0.033	34	> 50	0.103 (≈ 238 µM)
N#CC1(c2ccccc2-c2ccc(F)c3c2CC[C@H]3Nc2ccc([C@H]3C[C@@H]3C(=O)O)cn2)CC1 [Example 46]	<0.5	0.629	32	9	0.085 (≈ 187 µM)
CC(C)c1ccccc1-c1ccc(F)c2c1CC[C@H]2Nc1ccc([C@H]2C[C@@H]2C(=O)O)cn1 [Example 47]	<0.5	0.026	12	14	0.072 (≈ 167 µM)
O=C(O)[C@H]1C[C@@H]1c1ccc(N[C@@H]2CCc3c(-c4c(Cl)cccc4Cl)ccc(F)c32)nc1 [Example 50]	<1.0	0.013	21	22	0.069 (≈ 151 µM)
